{"source": "paper PMC5973995", "about": "(Clinical Pharmacokinetics, 2017)", "key": {"[1]": {"conditions": "given along with vortioxetine (Fig. 4)"}, "[2]": {"conditions": "cited from earlier work"}, "[3]": {"conditions": "cocktail with vortioxetine (Fig. 4)"}}}
{"smiles": "COc1ccc2[nH]c([S+]([O-])Cc3ncc(C)c(OC)c3C)nc2c1", "note": "(stereo not shown) [omeprazole]", "values": [{"measurement": "effect of vortioxetine on the pharmacokinetics of the co-administered drug", "setting": "[1]", "result": "no apparent effect"}, {"measurement": "C max, upper limit of the 90% CI (with vs without vortioxetine)", "setting": "[2]; multiple doses of vortioxetine (Fig. 4)", "result": 130, "unit": "%"}, {"measurement": "90% CI for AUC(0–inf) (with vs without vortioxetine)", "setting": "[2]; multiple doses of vortioxetine, within limits", "result": "80–125%"}]}
{"smiles": "O=C([O-])[O-].[Li+].[Li+]", "note": "[lithium]", "values": [{"measurement": "effect of vortioxetine on the pharmacokinetics of the co-administered drug", "setting": "[1]", "result": "No effect"}]}
{"smiles": "CCO", "note": "[ethanol]", "values": [{"measurement": "effect of vortioxetine on the pharmacokinetics of the co-administered drug", "setting": "[1]", "result": "No effect"}]}
{"smiles": "Cn1c(=O)c2c(ncn2C)n(C)c1=O", "note": "[caffeine]", "values": [{"measurement": "effect of vortioxetine on the pharmacokinetics of the co-administered drug", "setting": "[1]", "result": "No effect"}]}
{"smiles": "CN1C(=O)CN=C(c2ccccc2)c2cc(Cl)ccc21", "note": "[diazepam]", "values": [{"measurement": "effect of vortioxetine on the pharmacokinetics of the co-administered drug", "setting": "[1]", "result": "No effect"}]}
{"smiles": "CC(=O)Oc1ccccc1C(=O)O", "note": "[aspirin]", "values": [{"measurement": "effect of vortioxetine on the pharmacokinetics of the co-administered drug", "setting": "[1]", "result": "No effect"}]}
{"smiles": "C#C[C@]1(O)CC[C@H]2[C@@H]3CCc4cc(O)ccc4[C@H]3CC[C@@]21C", "note": "[ethinyl estradiol]", "values": [{"measurement": "effect of vortioxetine on the pharmacokinetics of the co-administered drug", "setting": "[1]", "result": "No effect"}]}
{"smiles": "Cc1ncc2n1-c1ccc(Cl)cc1C(c1ccccc1F)=NC2", "note": "[midazolam]", "values": [{"measurement": "effect of vortioxetine on the pharmacokinetics of the co-administered drug", "setting": "[1]", "result": "No effect"}]}
{"smiles": "COc1ccc2c(c1)[C@]13CCCC[C@@H]1[C@H](C2)N(C)CC3", "note": "[dextromethorphan]", "values": [{"measurement": "AUC(0–inf), 90% CI lower limit (with vs without vortioxetine)", "setting": "[2]; [3]", "result": 58, "unit": "%"}, {"measurement": "C max, 90% CI lower limit (with vs without vortioxetine)", "setting": "[2]; [3]", "result": 68, "unit": "%"}]}
{"smiles": "C#C[C@]1(O)CC[C@H]2[C@@H]3CCC4=CC(=O)CC[C@@H]4[C@H]3CC[C@@]21CC", "note": "[levonorgestrel]", "values": [{"measurement": "effect of vortioxetine on the pharmacokinetics of the co-administered drug", "setting": "[1]", "result": "No effect"}]}
